This passage reports buffer properties and electrical conductivity results from patent US20150105471A1, “PARACETAMOL FOR PARENTERAL ADMINISTRATION” (Fresenius Kabi Deutschland GmbH, priority 2009, published 2015).

Data set [1] in a line: buffer properties of cysteine. In kind it is physicochemical. Conditions: pH 5.5 to 7. The source says:
In a preferred embodiment, the composition according to the invention, preferably an infusion solution, contains cysteine, if appropriate additionally to mannitol.

The nature of data set [2]: electrical conductivity of aqueous paracetamol solutions. Format: physicochemical. The protocol: The composition according to the invention, preferably an infusion solution, has an electrical conductivity of at most 200 μS cm^−1. The measurement of the electrical conductivity of aqueous solutions is known to the person skilled in the art and suitable measuring apparatuses are obtainable commercially. The electrical conductivity is preferably measured at room temperature. […]
Aqueous solutions of paracetamol and further ingredients were prepared. The electrical conductivity of the solutions was measured and the storage stability of paracetamol was determined by means of the formation of degradation products (for the formation of the dimer cf., for example, D. W. Pottert et al, J Biol Chem, 1985, […], 12174-80; W. Clegg et al., Acta Crystallographica, 1998, C54, 1881-2).

For `N[C@@H](CS)C(=O)O` [cysteine], the buffer properties entry in data set [1] is given as “no buffer properties at all”.

In the case of `CC(=O)Nc1ccc(O)cc1` [paracetamol], the figures for the electrical conductivity entry in data set [2] (10 g of paracetamol in 1000 ml of water) and in data set [2] (10 g of paracetamol in 1000 ml of water plus 100 mg of NaCl (0.01% by weight of NaCl)) were “about 4 μS/cm” and “about 200 μS/cm”, respectively.
